From patent US20160000912A1, “COMBINATION THERAPY OF A TYPE II ANTI-CD20 ANTIBODY WITH A PROTEASOME INHIBITOR” (Roche Glycart AG, priority 2007, published 2016)

Key:
[1] = system: SU-DHL-4 human Non-Hodgkin-Lymphoma (NHL) cells; assay: Tumor growth inhibition study in vivo, SU-DHL-4 xenografts; set-up: species or system SCID beige mice; conditions: 1 mg/kg i.p. once weekly
Description: Type II anti-CD20 antibody B-HH6-B-KV1 GE(=humanized B-Ly1, glycoengineered B-HH6-B-KV1, see WO 2005/044859 and WO 2007/031875) was provided as stock solution (c=9.4 mg/ml) from GlycArt, Schlieren, Switzerland. Antibody buffer included histidine, trehalose and polysorbate 20. Antibody solution was diluted appropriately in PBS from stock for prior injections.
Proteasome inhibitor bortezomib was purchased as clinical formulation from Janssen-Cilag GmbH, Neuss, Germany. Dilution was adjusted from reconstituted stock solution.
SU-DHL-4 human Non-Hodgkin-Lymphoma (NHL) cells (Chang, H., et al., Leuk Lymphoma. 8 (1992) 129-36) were kindly provided from DSMZ, Braunschweig. Tumor cell line was routinely cultured in RPMI medium (PAA, Laboratories, Austria) supplemented with 10% fetal bovine serum (PAA Laboratories, Austria) and 2 mM L-glutamine, at 37° C. in a water-saturated atmosphere at 5% CO2. Passage 5 was used for transplantation. […]
Animals were controlled daily for clinical symptoms and detection of adverse effects. For monitoring throughout the experiment body weight of animals was documented two times weekly and tumor volume was measured by caliper after staging. […]

[2] = target: T1, CD20 on Raji cells (ATCC-No. CCL-86) (Homo sapiens, UniProt P11836); assay: Ratio of the binding capacities to CD20 on Raji cells compared to rituximab (direct immunofluorescence, Cy5, FACSArray); conditions: Cy5-conjugated antibodies
T1 construct: generated by direct immunofluorescence using the Burkitt's lymphoma cell line Raji (ATCC-No. CCL-86); host or cells: Raji cells (Burkitt's lymphoma)
T1 sequence (P11836 1-297): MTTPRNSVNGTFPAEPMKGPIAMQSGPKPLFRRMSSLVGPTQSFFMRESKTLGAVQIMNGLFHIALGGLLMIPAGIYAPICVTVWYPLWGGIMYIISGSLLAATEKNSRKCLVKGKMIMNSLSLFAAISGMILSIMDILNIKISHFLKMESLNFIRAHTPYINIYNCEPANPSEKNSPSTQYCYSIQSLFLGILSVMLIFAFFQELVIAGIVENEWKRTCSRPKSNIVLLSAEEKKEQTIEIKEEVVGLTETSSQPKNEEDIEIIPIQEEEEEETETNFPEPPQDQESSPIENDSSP
Description: MFI is the mean fluorescent intensity. The “Cy5-labeling ratio” as used herein means the number of Cy5-label molecules per molecule antibody.
Raji cells (ATCC-No. CCL-86) were maintained in culture in RPMI-1640 medium (PanBiotech GmbH, Cat.-No. PO4-18500) containing 10% FCS (Gibco, Cat.-No.10500-064). […] 5*10^5 cells per sample were stained for 30 min at 4° C. Afterwards, cells were washed in culture medium. Propidium iodide (PI) staining was used to exclude dead cells.
Then the ratio of the binding capacities to CD20 on Raji cells (ATCC-No. CCL-86) is calculated according to the following formula: […]

CC(C)C[C@H](NC(=O)[C@H](Cc1ccccc1)NC(=O)c1cnccn1)B(O)O [bortezomib]
antitumor activity as single agent (in words) [1]: only slightly active

B-HH6-B-KV1: Type II anti-CD20 antibody (humanized B-Ly1 antibody) of Example 2; FIG. 2 legend calls it B-HH6-B-KV1 GE
binding capacity compared to rituximab (in words) [2]: reduces binding capacity compared to rituximab
